{"source": "patent US20180271873A1", "about": "“METHODS FOR TREATING VIRAL INFECTIONS” (priority 2015, published 2018)", "tested_on": "GFP-expressing Zaire Ebolavirus Mayinga-GFP", "experiment": "microbe, parasite or virus in culture", "format": "cell-based", "settings": "HeLa, read-out: Activity (Biological activity, EC50)", "data": [{"smiles": "Cc1cccc(/C=N/Nc2cc(N3CCOCC3)nc(OCc3ncccn3)n2)c1", "note": "[Compound 5, (E)-4-(6-(2-(3-Methylbenzylidene)hydrazinyl)-2-(pyrimidin-2-ylmethoxy)pyrimidin-4-yl)morpholine]", "values": [{"measurement": "EC50", "result": "< 1", "unit": "µM"}]}, {"smiles": "Cc1ccccc1/C=N/Nc1cc(N2CCOCC2)nc(OCCc2ccccn2)n1", "note": "[Compound 10, (E)-4-(6-(2-(2-Methylbenzylidene)hydrazinyl)-2-(2-(pyridin-2-yl)ethoxy)pyrimidin-4-yl)morpholine]", "values": [{"measurement": "EC50", "result": "< 1", "unit": "µM"}]}, {"smiles": "Cc1cccc(/C=N/Nc2cc(N3CCOCC3)nc(OCCc3ccccn3)n2)c1", "note": "[Compound 11, (E)-4-(6-(2-(3-Methylbenzylidene)hydrazinyl)-2-(2-(pyridin-2-yl)ethoxy)pyrimidin-4-yl)morpholine]", "values": [{"measurement": "EC50", "result": "< 1", "unit": "µM"}]}, {"smiles": "C(=N\\Nc1cc(N2CCOCC2)nc(OCCc2ccccn2)n1)/c1cncnc1", "note": "[Compound 12, (E)-4-(2-(2-(Pyridin-2-yl)ethoxy)-6-(2-(pyrimidin-5-ylmethylene)hydrazinyl)pyrimidin-4-yl)morpholine]", "values": [{"measurement": "EC50", "result": "> 50", "unit": "µM"}]}, {"smiles": "Cc1cccc(/C=N/Nc2cc(N3CCOCC3)nc(OCC(C)c3ccccn3)n2)c1", "note": "(centres unmarked) [Compound 13, (E)-4-(6-(2-(3-Methylbenzylidene)hydrazinyl)-2-(2-(pyridin-2-yl)propoxy)pyrimidin-4-yl)morpholine]", "values": [{"measurement": "EC50", "result": "< 1", "unit": "µM"}]}, {"smiles": "Cc1cccc(/C=N/Nc2cc(N3CCOCC3)nc(OCCCc3ccccn3)n2)c1", "note": "[Compound 14, (E)-4-(6-(2-(3-Methylbenzylidene)hydrazinyl)-2-(3-(pyridin-2-yl)propoxy)pyrimidin-4-yl)morpholine]", "values": [{"measurement": "EC50", "result": "< 1", "unit": "µM"}]}, {"smiles": "Cc1cccc(/C=N/Nc2cc(N3CCOCC3)nc(Oc3ccc4cccnc4c3)n2)c1", "note": "[Compound 15, (E)-4-(6-(2-(3-Methylbenzylidene)hydrazinyl)-2-(quinolin-7-yloxy)pyrimidin-4-yl)morpholine]", "values": [{"measurement": "EC50", "result": "< 1", "unit": "µM"}]}, {"smiles": "Cc1cccc(/C=N/Nc2cc(N3CCS(=O)(=O)CC3)nc(OCCc3ccccn3)n2)c1", "note": "[Compound 16]", "values": [{"measurement": "EC50", "result": "> 50", "unit": "µM"}]}, {"smiles": "C(=N\\Nc1cc(N2CCOCC2)nc(OCCc2ccccn2)n1)/c1ccncc1", "note": "[Compound 17, (E)-4-(2-(2-(Pyridin-2-yl)ethoxy)-6-(2-(pyridin-4-ylmethylene)hydrazinyl)pyrimidin-4-yl)morpholine]", "values": [{"measurement": "EC50", "result": "> 50", "unit": "µM"}]}, {"smiles": "Cc1cccc(/C=N/Nc2cc(N3CCOCC3)nc(NCc3ccccn3)n2)c1", "note": "[Compound 18, (E)-4-(2-(3-Methylbenzylidene)hydrazinyl)-6-morpholino-N-(pyridin-2-ylmethyl)pyrimidin-2-amine]", "values": [{"measurement": "EC50", "result": "< 1", "unit": "µM"}]}, {"smiles": "Cc1cc(/C=N/Nc2cc(N3CCOCC3)nc(OCCc3ccccn3)n2)ccn1", "note": "[Compound 19, (E)-4-(6-(2-((2-Methylpyridin-4-yl)methylene)hydrazinyl)-2-(2-(pyridin-2-yl)ethoxy)pyrimidin-4-yl)morpholine]", "values": [{"measurement": "EC50", "result": "> 50", "unit": "µM"}]}, {"smiles": "Cc1cccc(/C=N/Nc2cc(N3CCOCC3)nc(OCCc3ccccc3)n2)c1", "note": "[Compound 20, (E)-4-(6-(2-(3-Methylbenzylidene)hydrazinyl)-2-phenethoxypyrimidin-4-yl)morpholine]", "values": [{"measurement": "EC50", "result": "1 to 50", "unit": "µM"}]}, {"smiles": "Cc1cccc(/C=N/Nc2cc(N3CCCCC3)nc(OCCc3ccccn3)n2)c1", "note": "[Compound 21, (E)-4-(2-(3-Methylbenzylidene)hydrazinyl)-6-(piperidin-1-yl)-2-(2-(pyridin-2-yl)ethoxy)pyrimidine]", "values": [{"measurement": "EC50", "result": "> 50", "unit": "µM"}]}, {"smiles": "Cc1cccc(/C=N/Nc2cc(N3CC(C)OC(C)C3)nc(OCCc3ccccn3)n2)c1", "note": "(centres unmarked) [Compound 22, (E)-2,6-Dimethyl-4-(6-(2-(3-methylbenzylidene)hydrazinyl)-2-(2-(pyridin-2-yl)ethoxy)pyrimidin-4-yl)morpholine]", "values": [{"measurement": "EC50", "result": "1 to 50", "unit": "µM"}]}, {"smiles": "Cc1cccc(/C=N/Nc2cc(N3CCOCC3)nc(OCCc3ncccn3)n2)c1", "note": "[Compound 23, (E)-4-(6-(2-(3-Methylbenzylidene)hydrazinyl)-2-(2-(pyrimidin-2-yl)ethoxy)pyrimidin-4-yl)morpholine]", "values": [{"measurement": "EC50", "result": "< 1", "unit": "µM"}]}, {"smiles": "CCCN(CCC)c1cc(N/N=C/c2cccc(C)c2)nc(OCCc2ncccn2)n1", "note": "[Compound 24, (E)-6-(2-(3-Methylbenzylidene)hydrazinyl)-N,N-dipropyl-2-(2-(pyrimidin-2-yl)ethoxy)pyrimidin-4-amine]", "values": [{"measurement": "EC50", "result": "> 50", "unit": "µM"}]}, {"smiles": "Cc1cccc(/C=N/Nc2cc(N3CCOCC3)nc(Oc3ccccn3)n2)c1", "note": "[Compound 25, (E)-4-(6-(2-(3-Methylbenzylidene)hydrazinyl)-2-(pyridin-2-yloxy)pyrimidin-4-yl)morpholine]", "values": [{"measurement": "EC50", "result": "< 1", "unit": "µM"}]}, {"smiles": "Cc1cccc(/C=N/Nc2cc(N3CCSCC3)nc(OCCc3ccccn3)n2)c1", "note": "[Compound 26, (E)-4-(6-(2-(3-Methylbenzylidene)hydrazinyl)-2-(2-(pyridin-2-yl)ethoxy)pyrimidin-4-yl)thiomorpholine]", "values": [{"measurement": "EC50", "result": "1 to 50", "unit": "µM"}]}, {"smiles": "Cc1cccc(/C=N/Nc2cc(N3CCOCC3)nc(-c3cccc(O)c3)n2)c1", "note": "[Compound 27, (E)-3-(4-(2-(3-Methylbenzylidene)hydrazinyl)-6-morpholinopyrimidin-2-yl)phenol]", "values": [{"measurement": "EC50", "result": "1 to 50", "unit": "µM"}]}, {"smiles": "Cc1cccc(/C=N/Nc2cc(N3CCOCC3)nc(OC(C)Cc3ccccn3)n2)c1", "note": "(centres unmarked) [Compound 28, (E)-4-(6-(2-(3-Methylbenzylidene)hydrazinyl)-2-(1-(pyridin-2-yl)propan-2-yloxy)pyrimidin-4-yl)morpholine]", "values": [{"measurement": "EC50", "result": "< 1", "unit": "µM"}]}, {"smiles": "Cc1cccc(/C=N/Nc2cc(N3CCOCC3)nc(OCCc3ccncn3)n2)c1", "note": "[Compound 29, (E)-4-(6-(2-(3-Methylbenzylidene)hydrazinyl)-2-(2-(pyrimidin-4-yl)ethoxy)pyrimidin-4-yl)morpholine]", "values": [{"measurement": "EC50", "result": "1 to 50", "unit": "µM"}]}, {"smiles": "Cc1cccc(/C=N/Nc2cc(N3CCOCC3)nc(-c3cccc(-c4ccccn4)c3)n2)c1", "note": "[Compound 30, (E)-4-(6-(2-(3-Methylbenzylidene)hydrazinyl)-2-(3-(pyridin-2-yl)phenyl)pyrimidin-4-yl)morpholine]", "values": [{"measurement": "EC50", "result": "1 to 50", "unit": "µM"}]}, {"smiles": "COc1c(N/N=C/c2cccc(C)c2)nc(OCCc2ccccn2)nc1N1CCOCC1", "note": "[Compound 31, (E)-4-(5-Methoxy-6-(2-(3-methylbenzylidene)hydrazinyl)-2-(2-(pyridin-2-yl)ethoxy)pyrimidin-4-yl)morpholine]", "values": [{"measurement": "EC50", "result": "1 to 50", "unit": "µM"}]}, {"smiles": "Cc1cccc(/C=N/Nc2nc(OCCc3ccccn3)nc(N3CCOCC3)c2C)c1", "note": "[Compound 32, (E)-4-(5-Methyl-6-(2-(3-methylbenzylidene)hydrazinyl)-2-(2-(pyridin-2-yl)ethoxy)pyrimidin-4-yl)morpholine]", "values": [{"measurement": "EC50", "result": "1 to 50", "unit": "µM"}]}, {"smiles": "FC(F)(F)c1cccc(/C=N/Nc2cc(N3CCOCC3)nc(OCCc3ccccn3)n2)c1", "note": "[Compound 33, (E)-4-(2-(2-(Pyridin-2-yl)ethoxy)-6-(2-(3-(trifluoromethyl)benzylidene)hydrazinyl)pyrimidin-4-yl)morpholine]", "values": [{"measurement": "EC50", "result": "< 1", "unit": "µM"}]}, {"smiles": "C/C(=N\\Nc1cc(N2CCOCC2)nc(OCCc2ccccn2)n1)c1cccc(C)c1", "note": "[Compound 34, (E)-4-(2-(2-(Pyridin-2-yl)ethoxy)-6-(2-(1-m-tolylethylidene)hydrazinyl)pyrimidin-4-yl)morpholine]", "values": [{"measurement": "EC50", "result": "< 1", "unit": "µM"}]}, {"smiles": "Cc1cccc(/C=N/Nc2cc(N3CCCOCC3)nc(OCCc3ccccn3)n2)c1", "note": "[Compound 35, (E)-4-(6-(2-(3-Methylbenzylidene)hydrazinyl)-2-(2-(pyridin-2-yl)ethoxy)pyrimidin-4-yl)-1,4-oxazepane]", "values": [{"measurement": "EC50", "result": "1 to 50", "unit": "µM"}]}, {"smiles": "Cc1cccc(/C=N/Nc2cc(N3CCOCC3)nc(OCC(C)(C)c3ccccc3)n2)c1", "note": "[Compound 36, (E)-4-(2-(2-Methyl-2-phenylpropoxy)-6-(2-(3-methylbenzylidene)hydrazinyl)pyrimidin-4-yl)morpholine]", "values": [{"measurement": "EC50", "result": "1 to 50", "unit": "µM"}]}, {"smiles": "Cc1cccc(/C=N/N(C)c2cc(N3CCOCC3)nc(OCCc3ccccn3)n2)c1", "note": "[Compound 37, (E)-4-(6-(1-Methyl-2-(3-methylbenzylidene)hydrazinyl)-2-(2-(pyridin-2-yl)ethoxy)pyrimidin-4-yl)morpholine]", "values": [{"measurement": "EC50", "result": "1 to 50", "unit": "µM"}]}, {"smiles": "Cc1cccc(/C=N/Nc2nc(OCCc3ccccn3)nc(N3CCOCC3)c2C#N)c1", "note": "[Compound 38, (E)-4-(2-(3-Methylbenzylidene)hydrazinyl)-6-morpholino-2-(2-(pyridin-2-yl)ethoxy)pyrimidine-5-carbonitrile]", "values": [{"measurement": "EC50", "result": "> 50", "unit": "µM"}]}, {"smiles": "Cc1cccc(/C=N/Nc2nc(OCCc3ccccn3)nc(N3CCOCC3)c2Cl)c1", "note": "[Compound 39, (E)-4-(5-Chloro-6-(2-(3-methylbenzylidene)hydrazinyl)-2-(2-(pyridin-2-yl)ethoxy)pyrimidin-4-yl)morpholine]", "values": [{"measurement": "EC50", "result": "> 50", "unit": "µM"}]}, {"smiles": "Cc1cccc(/C=N/Nc2nc(OCCc3ccccn3)nc(N3CCOCC3)c2F)c1", "note": "[Compound 40, (E)-4-(5-Fluoro-6-(2-(3-methylbenzylidene)hydrazinyl)-2-(2-(pyridin-2-yl)ethoxy)pyrimidin-4-yl)morpholine]", "values": [{"measurement": "EC50", "result": "> 50", "unit": "µM"}]}, {"smiles": "Cc1cccc(/C=N/Nc2cc(C3CCOCC3)nc(OCCc3ccccn3)n2)c1", "note": "[Compound 41, (E)-4-(2-(3-Methylbenzylidene)hydrazinyl)-2-(2-(pyridin-2-yl)ethoxy)-6-(tetrahydro-2H-pyran-4-yl)pyrimidine]", "values": [{"measurement": "EC50", "result": "> 50", "unit": "µM"}]}, {"smiles": "Cc1cccc(/C=N/Nc2cc(N3CCN(C)CC3)nc(OCCc3ccccn3)n2)c1", "note": "[Compound 42, (E)-4-(2-(3-Methylbenzylidene)hydrazinyl)-6-(4-methylpiperazin-1-yl)-2-(2-(pyridin-2-yl)ethoxy)pyrimidine]", "values": [{"measurement": "EC50", "result": "> 50", "unit": "µM"}]}, {"smiles": "Cc1cccc(/C=N/Nc2cc(N3CCOCC3)nc(OCCc3ccc(N)nc3)n2)c1", "note": "[Compound 43, (E)-5-(2-(4-(2-(3-Methylbenzylidene)hydrazinyl)-6-morpholinopyrimidin-2-yloxy)ethyl)pyridin-2-amine]", "values": [{"measurement": "EC50", "result": "> 50", "unit": "µM"}]}, {"smiles": "Cc1cccc(/C=N/Nc2cc(N3CCOCC3)nc(OCCc3cnccn3)n2)c1", "note": "[Compound 44, (E)-4-(6-(2-(3-Methylbenzylidene)hydrazinyl)-2-(2-(pyrazin-2-yl)ethoxy)pyrimidin-4-yl)morpholine]", "values": [{"measurement": "EC50", "result": "1 to 50", "unit": "µM"}]}, {"smiles": "Cc1cccc(/C=N/Nc2cc(N3CCOCC3)nc(OCC(F)(F)c3ccccc3)n2)c1", "note": "[Compound 45, (E)-4-(2-(2,2-Difluoro-2-phenylethoxy)-6-(2-(3-methylbenzylidene)hydrazinyl)pyrimidin-4-yl)morpholine]", "values": [{"measurement": "EC50", "result": "1 to 50", "unit": "µM"}]}, {"smiles": "C(=N\\Nc1cc(N2CCOCC2)nc(OCCc2ccccn2)n1)/c1ccccc1", "note": "[Compound 46, (E)-4-(6-(2-Benzylidenehydrazinyl)-2-(2-(pyridin-2-yl)ethoxy)pyrimidin-4-yl)morpholine]", "values": [{"measurement": "EC50", "result": "1 to 50", "unit": "µM"}]}]}
